Results from BindingDB's records for doi:10.1021/jm100809g (F. Hoffmann-La Roche, 2011).

Target: Carnitine O-palmitoyltransferase 1, liver isoform (Rattus norvegicus) (UniProt P32198)
Assay: Maximal inhibition of rat CPT1A

Carnitine O-palmitoyltransferase 1, liver isoform (Rattus norvegicus), sequence (P32198 whole entry, looked up, canonical isoform): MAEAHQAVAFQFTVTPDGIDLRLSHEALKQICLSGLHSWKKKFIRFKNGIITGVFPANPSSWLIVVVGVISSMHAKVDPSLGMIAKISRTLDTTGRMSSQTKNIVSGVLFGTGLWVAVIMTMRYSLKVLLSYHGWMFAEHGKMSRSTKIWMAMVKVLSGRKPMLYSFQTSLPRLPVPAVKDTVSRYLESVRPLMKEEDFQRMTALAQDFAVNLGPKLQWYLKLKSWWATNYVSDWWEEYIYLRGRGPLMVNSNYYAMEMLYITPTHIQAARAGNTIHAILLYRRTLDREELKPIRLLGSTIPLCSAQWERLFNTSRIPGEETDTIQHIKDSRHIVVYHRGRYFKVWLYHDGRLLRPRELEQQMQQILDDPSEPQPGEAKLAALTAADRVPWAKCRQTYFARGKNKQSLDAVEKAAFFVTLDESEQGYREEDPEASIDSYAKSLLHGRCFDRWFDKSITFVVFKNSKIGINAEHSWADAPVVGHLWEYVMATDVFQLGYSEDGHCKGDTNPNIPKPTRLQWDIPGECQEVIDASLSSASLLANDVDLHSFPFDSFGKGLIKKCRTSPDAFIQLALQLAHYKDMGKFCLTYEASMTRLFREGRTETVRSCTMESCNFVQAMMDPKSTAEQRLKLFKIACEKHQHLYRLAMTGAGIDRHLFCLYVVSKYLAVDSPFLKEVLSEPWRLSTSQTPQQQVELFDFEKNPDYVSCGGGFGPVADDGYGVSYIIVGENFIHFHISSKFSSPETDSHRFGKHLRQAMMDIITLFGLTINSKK

SMILES | IC50
CCCCCCCCCCCCCCNC(=O)N[C@H](CC(=O)[O-])C[N+](C)(C)C [[3-Carboxy-2-(3-tetradecyl-ureido)-propyl]-trimethyl-ammonium] | 1.45 µM
COc1ccc(Cl)cc1S(=O)(=O)N1CCc2ccc(C(=O)Nc3ccc(C(=O)O)cc3)cc21 | 0.055 µM
O=C(COc1ccccc1)N1CCCC[C@@H]1c1nc(-c2ccccn2)cs1 | 0.13 µM
COc1ccc(Cl)cc1S(=O)(=O)N1CC(C(=O)O)Oc2ccc(C(=O)Nc3cccc(F)c3)cc21 (configuration not stated) | 0.03 µM
COc1ccc(C)cc1S(=O)(=O)N1CCCc2ccc(C(=O)Nc3ccc(CC(=O)O)cc3)cc21 | 0.18 µM
C[N+](C)(C)C[C@H](N)CC(=O)[O-] | 27.3 µM
O=C(NCc1cccs1)c1nn(Cc2cccc(C(F)(F)F)c2)c2ccccc12 | 0.15 µM
